This is an account of results in patent publication US7632829B2, “Diazepan derivatives” (Hoffmann-La Roche Inc., priority 2006, dated 2009).

A word on the IC50: it is the concentration that inhibits the measured activity by half.

Counter-ions that a name gives are not always drawn.

The assay addresses T1, human chemokine receptor 2 isoform B (Homo sapiens, UniProt P41597).
T1 construct: host or cells: CHOK1-CCR2B-A5 (CHO-K1)
T1 sequence (P41597 1-360 isoform P41597-2): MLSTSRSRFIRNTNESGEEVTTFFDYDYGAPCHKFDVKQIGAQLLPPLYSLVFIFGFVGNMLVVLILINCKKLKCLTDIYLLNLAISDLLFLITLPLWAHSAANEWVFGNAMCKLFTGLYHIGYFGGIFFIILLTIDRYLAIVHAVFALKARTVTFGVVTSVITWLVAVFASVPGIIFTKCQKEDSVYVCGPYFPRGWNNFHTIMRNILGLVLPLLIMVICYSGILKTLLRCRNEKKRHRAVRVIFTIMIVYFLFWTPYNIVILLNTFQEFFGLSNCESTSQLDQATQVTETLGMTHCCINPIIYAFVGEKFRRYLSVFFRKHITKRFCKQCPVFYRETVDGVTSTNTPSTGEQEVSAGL
Put plainly: Calcium mobilization assay (FLIPR, CHOK1-CCR2B-A5 cells, 20 nM MCP-1). In kind it is cell-based. Conditions: Ca mobilisation assay, CCR2, antagonist activity vs 20 nM MCP-1. The protocol:
CHOK1-CCR2B-A5 cells (from Euroscreen) stably overexpressing the human chemokine receptor 2 isoform B were cultured in Nutrient Hams F12 medium supplemented with 5% FBS, 100 U/ml penicillin, 100 μg/ml streptomycin, 400 μg/ml G418 and 5 μg/ml puromycin.
For the assay cells were grown overnight in 384-well black clear flat bottom polystyrene plates (Costar) at 37° C. at 5% CO2. After washing with DMEM, 20 mM Hepes, 2.5 mM probenecid, 0.1% BSA (DMEM assay buffer) cells were loaded with 4 μM Fluo-4 in the same DMEM assay buffer for 2 hours at 30° C. Excess dye was removed and cells were washed with DMEM assay buffer. 384-well compound plates were prepared with DMEM assay buffer/0.5% DMSO with or without various concentrations of test compounds. Usually compounds were tested for agonist and antagonist activity.
Test compounds were added to the assay plate and agonist activity was monitored as fluorescence for 80 seconds with a FLIPR (488 nm excitation; 510-570 nm emission; Molecular Devices). After 20-30 min. of incubation at 30° C., 20 nM MCP-1 (R&D; Roche) was added and fluorescence was monitored again for 80 seconds. Increases in intracellular calcium are reported as maximum fluorescence after agonist exposure minus basal fluorescence before exposure. Antagonist activity is indicated as inhibitor concentration required for 50% inhibition of specific calcium increases.
On the technique in general: Calcium flux is commonly read through the fluorescence of an indicator in the cells.
Regarding `CC1CCCCN1CCCN1CCN(C(=O)/C=C/c2ccc(Cl)c(Cl)c2)CCC1=O` (racemic) [Example 62, (+/−)-1-[(E)-3-(3,4-Dichloro-phenyl)-acryloyl]-4-[3-(2-methyl-piperidin-1-yl)-propyl]-[1,4]diazepan-5-one], the IC50 is 0.165 µM.

Take `C[C@@]1(CO)CCN(CCCN2CCN(C(=O)/C=C/c3ccc(Cl)c(Cl)c3)CCC2=O)C[C@H]1O` (racemic) [Example 271, (rac,trans)-1-[(E)-3-(3,4-Dichloro-phenyl)-acryloyl]-4-[3-(3-hydroxy-4-hydroxymethyl-4-methyl-piperidin-1-yl)-propyl]-[1,4]diazepan-5-one]: the IC50 is 0.055 µM. On to `O=C(/C=C/c1ccc(Cl)c(Cl)c1)N1CCC(=O)N(CCCN2CCC3(CC3)C(O)C2)CC1` (stereo not drawn) [Example 262], for which the IC50 was 0.004 µM. `O=C(/C=C/c1ccc(Cl)c(Cl)c1)N1CCC(=O)N(CCCCN2CCCC(CO)C2)CC1` (racemic) [Example 425]: the IC50 worked out at 0.089 µM.

Turning to `CC1(C)CCN(CCCCN2CCN(C(=O)/C=C/c3ccc(Cl)c(F)c3)CCC2=O)CC1O` (racemic) [Example 420], the IC50 is 0.052 µM. On to `O=C(/C=C/c1ccc(F)c(Cl)c1)N1CCC(=O)N(C[C@@H](O)CN2CCCCC2)CC1` [Example 175, 1-[(E)-3-(3-Chloro-4-fluoro-phenyl)-acryloyl]-4-((S)-2-hydroxy-3-piperidin-1-yl-propyl)-[1,4]diazepan-5-one], for which the IC50 stood at 0.096 µM.

For the molecule `CC1CC(O)CN(CCCCN2CCN(C(=O)C=Cc3ccc(Cl)c(F)c3)CCC2=O)C1` (mixture of isomers) [Example 421, (rac,cis)-1-[(E)-3-(4-Chloro-3-fluoro-phenyl)-acryloyl]-4-[4-(3-hydroxy-5-methyl-piperidin-1-yl)-butyl]-[1,4]diazepan-5-one], the IC50 stood at 0.064 µM. With `CC1(CO)CCN(CCCCN2CCN(C(=O)C=Cc3ccc(Cl)c(F)c3)CCC2=O)CC1O` (stereo not drawn) [Example 412], the IC50 was 0.342 µM. To `CC1CCCCN1CC(O)CCN1CCN(C(=O)/C=C/c2ccc(Cl)c(Cl)c2)CCC1=O` (racemic) [Example 375] belongs 0.274 µM; to `O=C(/C=C/c1ccc(F)c(Cl)c1)N1CCC(=O)N(CCCN2CCC(O)CC2)CC1` [Example 196], 0.864 µM; to `COC[C@H]1CCN(C[C@H](O)CN2CCN(C(=O)/C=C/c3ccc(Cl)c(Cl)c3)CCC2=O)C[C@H]1O` (mixture of isomers) [Example 329, 1-[(E)-3-(3,4-Dichloro-phenyl)-acryloyl]-4-[(S)-2-hydroxy-3-(cis-3-hydroxy-4-methoxymethyl-piperidin-1-yl)-propyl]-[1,4]diazepan-5-one], 0.137 µM. Consider `O=C(/C=C/c1ccc(Cl)c(Cl)c1)N1CCC(=O)N(CCC(O)CN2CCCCC2)CC1` (racemic) [Example 170, (rac)-1-[(E)-3-(3,4-Dichloro-phenyl)-acryloyl]-4-(3-hydroxy-4-piperidin-1-yl-butyl)-[1,4]diazepan-5-one], for which the IC50 amounted to 0.448 µM.

On to `CC1C(O)CCCN1CCCCN1CCN(C(=O)C=Cc2ccc(F)c(Cl)c2)CCC1=O` (stereo not drawn) [Example 388], for which the IC50 turned out to be 0.381 µM.

Regarding `O=C(/C=C/c1ccc(OCc2ccccc2)cc1)N1CCC(=O)N(CCN2CCCC2)CC1` [Example 17, 1-[(E)-3-(4-Benzyloxy-phenyl)-acryloyl]-4-(2-pyrrolidin-1-yl-ethyl)-[1,4]diazepan-5-one], the IC50 was found to be 0.756 µM. Regarding `O=C(/C=C/c1ccc(Cl)c(Cl)c1)N1CCC(=O)N(CCCCN2CC[C@H](O)[C@H](O)C2)CC1` (racemic) [Example 163, 1-[(E)-3-(3,4-Dichloro-phenyl)-acryloyl]-4-[4-((3RS,4SR)-3,4-dihydroxy-piperidin-1-yl)-butyl]-[1,4]diazepan-5-one hydrochlorid], the IC50 was 0.56 µM. Turning to `CC1(C)CCN(C[C@H](O)CN2CCN(C(=O)/C=C/c3ccc(Cl)c(Cl)c3)CCC2=O)CC1O` (stereo partly drawn) [Example 334, 1-[(E)-3-(3,4-Dichloro-phenyl)-acryloyl]-4-[(S)-2-hydroxy-3-(3-hydroxy-4,4-dimethyl-piperidin-1-yl)-propyl]-[1,4]diazepan-5-one], the IC50 was determined as 0.004 µM. Take `COC(=O)NC1CCCN(CCCN2CCN(C(=O)/C=C/c3ccc(Cl)c(Cl)c3)CCC2=O)C1` (racemic) [Example 256]: the IC50 is 1.07 µM. To `O=C(/C=C/c1ccc(Cl)c(Cl)c1)N1CCC(=O)N(C[C@@H](O)CN2CCCCC2)CC1` [Example 167, 1-[(E)-3-(3,4-Dichloro-phenyl)-acryloyl]-4-((S)-2-hydroxy-3-piperidin-1-yl-propyl)-[1,4]diazepan-5-one] belongs 0.028 µM; to “(rac)-1-[(E)-3-(3,4-Dichloro-phenyl)-acryloyl]-4-[4-(3-hydroxy-5-methoxymethyl-piperidin-1-yl)-butyl]-[1,4]diazepan-5-one [Example 490]”, 0.026 µM; to `COCC1CCCN(CCCCN2CCN(C(=O)/C=C/c3ccc(F)c(Cl)c3)CCC2=O)C1` (racemic) [Example 392], 0.054 µM. For `O=C(/C=C/c1ccc(Cl)c(Cl)c1)N1CCC(=O)N(CC(O)CN2CCC(CO)CC2)CC1` (racemic) [Example 291, (rac)-(1-[(E)-3-(3,4-Dichloro-phenyl)-acryloyl]-4-[2-hydroxy-3-(4-hydroxymethyl-piperidin-1-yl)-propyl]-[1,4]diazepan-5-one], the IC50 is 0.404 µM. For `COCC1CCCN(CC(O)CN2CCN(C(=O)/C=C/c3ccc(Cl)c(Cl)c3)CCC2=O)C1` (racemic) [Example 293], the IC50 turned out to be 1.12 µM. Under `COCC1CCN(CCCN2CCN(C(=O)/C=C/c3ccc(Cl)c(Cl)c3)CCC2=O)CC1` [Example 247] stands 0.613 µM; under `O=C(C=Cc1ccc(Cl)c(Cl)c1)N1CCC(=O)N(CCNC2CCCCC2O)CC1` (stereo not drawn) [Example 357], 0.385 µM.

Regarding `O=C(/C=C/c1ccc(Cl)c(Cl)c1)N1CCC(=O)N(CCCCCN2CCCCC2)CC1` [Example 162, 1-[(E)-3-(3,4-Dichloro-phenyl)-acryloyl]-4-(5-piperidin-1-yl-pentyl)-[1,4]diazepan-5-one], the IC50 is 0.319 µM. As to `O=C(C=Cc1ccc(F)c(Cl)c1)N1CCC(=O)N(CCCN2CCC(F)C(O)C2)CC1` (mixture of isomers) [Example 213, (rac,trans)-1-[(E)-3-(3-Chloro-4-fluoro-phenyl)-acryloyl]-4-[3-(4-fluoro-3-hydroxy-piperidin-1-yl)-propyl]-[1,4]diazepan-5-one], the IC50 stood at 0.421 µM. `C[C@@H]1C[C@H](O)CN(C[C@H](O)CCN2CCN(C(=O)/C=C/c3ccc(F)c(Cl)c3)CCC2=O)C1` [Example 502]: the IC50 came to 0.253 µM. Under `COC1CCCN(CC(O)CN2CCN(C(=O)/C=C/c3ccc(Cl)c(Cl)c3)CCC2=O)C1` (racemic) [Example 283] stands 0.311 µM. Under `CC1CCCCN1CCN1CCN(C(=O)C=Cc2ccc(Cl)c(Cl)c2)CCC1=O` (racemic) [Example 102, (+/−)-1-[(E)-3-(3,4-Dichloro-phenyl)-acryloyl]-4-[3-(2-methyl-piperidin-1-yl)-ethyl]-[1,4]diazepan-5-one] stands 1.02 µM; under `O=C(/C=C/c1ccc(F)c(Cl)c1)N1CCC(=O)N(CCCCN2CCCC(CO)C2)CC1` (racemic) [Example 385], 0.31 µM.
